Experimental data as given in patent US12285501B2, “Compound targeting norepinephrine transporter” (priority 2019, dated 2025).
Each block holds one molecule with its values, some of them ahead of it.

Key:
[1] = target: T1, NET (Homo sapiens, UniProt P23975); assay: Competitive inhibition of 131I-MIBG uptake in SK-N-SH cells expressing NET; assay type: cell-based; conditions: for IC50: non-radioactive compounds, percent of control MIBG uptake
T1 construct: SK-N-SH cells expressing NET; host or cells: SK-N-SH
T1 sequence (P23975 whole entry): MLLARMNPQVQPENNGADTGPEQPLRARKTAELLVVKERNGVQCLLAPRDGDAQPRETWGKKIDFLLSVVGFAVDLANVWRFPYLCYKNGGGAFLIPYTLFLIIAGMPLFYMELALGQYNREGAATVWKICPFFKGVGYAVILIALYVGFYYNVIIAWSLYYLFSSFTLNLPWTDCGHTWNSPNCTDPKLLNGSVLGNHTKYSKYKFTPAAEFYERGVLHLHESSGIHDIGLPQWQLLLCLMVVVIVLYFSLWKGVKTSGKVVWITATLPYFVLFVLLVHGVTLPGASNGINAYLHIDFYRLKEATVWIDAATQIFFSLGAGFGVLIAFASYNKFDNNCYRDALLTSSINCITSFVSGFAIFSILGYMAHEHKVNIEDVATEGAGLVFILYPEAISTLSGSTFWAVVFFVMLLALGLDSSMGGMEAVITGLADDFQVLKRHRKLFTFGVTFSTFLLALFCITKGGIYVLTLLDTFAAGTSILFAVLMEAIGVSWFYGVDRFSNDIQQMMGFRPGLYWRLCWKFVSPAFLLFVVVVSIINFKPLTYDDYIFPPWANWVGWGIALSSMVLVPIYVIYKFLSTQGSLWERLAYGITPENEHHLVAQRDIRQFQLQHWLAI
Procedure: (§1) SK-N-SH cells expressing NET were cultivated according to the instructions from the supplier (Sigma-Aldrich Chemie GmbH, Munich, Germany). The cells were transferred to a 12 well plate and incubated in 1 mL EMEM while reaching 2×10^5 cells/well density the day for testing. The medium was removed, and the cells were washed with 1 mL EMEM. A solution of ^18F-AF78 (3.7 kBq) in EMEM (700 μL) was added to each well with or without inhibitors (NE, MHPG, cold AF78 each with a final concentration 100 nM, 1 μM, 10 μM and 100 μM, respectively; Desipramine 10 μM). The plate was incubated for 60 min at 37° C. The cells were washed with ice-cold PBS buffer (1 mL×2) in order to remove unbound tracer. NaOH solution (0.1 N, 500 μL) was added to each well followed by the collection of cell pellet and the measurement in γ-counter (FH412, Frieseke & Höpfner, Erlangen, Germany) using differential energy windows (±20%) for ^18F and ^131I.
[drawing 27] were synthesized. The compounds were tested in SK-N-SH cells expressing NET in order to evaluate their competitive binding affinity against ^131I-MIBG. […] Results are expressed as percent of control MIBG uptake. […] (IC50 of AF78 vs. MHPG p value<0.01)
NE and cold MIBG were used as references. As a result, cold reference 2 (AF78) could inhibit the cell uptake of ^131I-MIBG in a concentration-dependent manner. In contrast, cold reference 1 was not able to block the uptake of ^131I-MIBG even at the highest concentration tested. Inhibition was only 40% at 100 μM. […] The introduction of long alkyl chain at 3-position on the benzene ring seems not to be tolerated, whereas introduction at the 4-position seems to be well tolerated.

[2] = target: T1, NET; assay: Competitive inhibition of 18F-AF78 uptake in SK-N-SH cells; assay type: cell-based; conditions: percentage of control AF78 uptake
Procedure: as §1
To further confirm the tracer's binding affinity, ^18F-labeled AF78 was used in competitive inhibition assay, to which different concentrations of NE, MHPG, and cold reference 2 (AF78) were added. […] Results are expressed as percentage of control AF78 uptake. […] (IC50 of MHPG vs. AF78, p value<0.05). […]

[3] = time frame of 50-60 min imaging; Raffel et al., J. Nucl. Med. 2017; cited from earlier work
[4] = target: T1, NET; assay: Tracer cell uptake in SK-N-SH cells with and without NET inhibitor desipramine (DMI); assay type: cell-based; conditions: desipramine 10 μM, 60 min at 37° C.
Procedure: as §1
After successful radiolabeling, ^18F-AF78 was also tested in SK-N-SH cells in order to check cell uptake. Antidepressant desipramine (DMI) was used as the inhibitor of NET. The addition of DMI blocks cell uptake of tracers specifically transported by NET.

[5] = target: T2, NET (Rattus norvegicus, UniProt Q63380); assay: Ex vivo tissue counting study (heart/tissue distribution ratio) with and without NET blockade; assay type: in vivo; conditions: rats
T2 construct: tissue Japan SLC, Inc., Japan (animals); host or cells: heart (myocardium) of healthy male Wistar rats, in vivo
T2 sequence (Q63380 1-617): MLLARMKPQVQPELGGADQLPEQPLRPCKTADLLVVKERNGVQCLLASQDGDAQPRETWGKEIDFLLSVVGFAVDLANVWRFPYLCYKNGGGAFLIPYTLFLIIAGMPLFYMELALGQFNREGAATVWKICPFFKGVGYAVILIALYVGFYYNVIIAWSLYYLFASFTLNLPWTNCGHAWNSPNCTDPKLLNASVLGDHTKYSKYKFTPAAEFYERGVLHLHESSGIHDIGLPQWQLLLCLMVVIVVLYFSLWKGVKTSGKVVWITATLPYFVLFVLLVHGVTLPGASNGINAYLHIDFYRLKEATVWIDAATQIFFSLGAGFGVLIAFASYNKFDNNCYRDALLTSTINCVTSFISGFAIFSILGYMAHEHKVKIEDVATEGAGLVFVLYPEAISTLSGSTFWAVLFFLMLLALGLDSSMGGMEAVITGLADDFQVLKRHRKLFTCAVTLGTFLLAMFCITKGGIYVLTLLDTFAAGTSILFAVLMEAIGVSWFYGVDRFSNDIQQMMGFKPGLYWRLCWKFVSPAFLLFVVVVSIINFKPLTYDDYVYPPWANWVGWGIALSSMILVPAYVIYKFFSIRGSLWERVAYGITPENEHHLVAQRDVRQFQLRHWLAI
Procedure: (§2) Standard protocols and data analysis methods for non-invasive PET imaging of small animals have been established in the working group of the inventors (Rischpler C. et al., Eur J Nucl Med Mol Imaging. 2013; 40(7): 1077-83). Healthy male Wistar rats (Japan SLC, Inc., Japan) each weighing 200-250 g were used. The rats are anaesthetized with 2% isoflurane. 10-20 MBq of the tracer was administered via tail vein injection. Ten minutes after the tracer administration, the animals were immediately euthanized. Hearts, livers and blood were obtained for ex vivo analysis with autoradiography (Typhoon FLA 7000) and tissue counts with γ-counter (1480 WIZARD™ 3″). Following weight and decay correction of tissue counts, the heart to blood (H/B) and heart to liver (H/L) count ratio were calculated, respectively. For autoradiography, the rats were first injected via tail vein either with or without (control) NET blocker phenoxynezamine 50 mg/kg after anaesthesia. After 10 min, the tracer (10-20 MBq) was administered. The hearts were harvested 10 min later, frozen, and cut into 20 μm short axis slices using a cryostat (Cryotome FSE, Thermo Fisher Scientific). To obtain the distribution of the tracer, autoradiography plates (Fuji SR-type image plate, Fujifilm Corporation, Tokyo, Japan) were exposed to the short axis slices immediately for 18 h and thereafter imaged using a digital autoradiographic system (Typhoon FLA 7000).
The columns are the mean value of 2 rats. Data were determined 10 min post injection. Y-axis represents the heart/tissue distribution ratio. […] In comparison, according to Raffel, D. et al., J. Nucl. Med. 2017, 58 (Suppl 1): 96 MHPG and PHPG show tissue concentration ratios at a time frame of 50-60 min imaging as follows: MHPG with H/B 3.6 and H/L 2.3; PHPG with 5.4 and 1.1, respectively.

[6] = target: T2, NET; assay: Ex vivo autoradiography of left ventricular short axis slices; assay type: in vivo
Procedure: as §2, with “To obtain the distribution of the tracer, autoradiography plates (Fuji SR-type image plate, Fujifilm Corporation, Tokyo, Japan) were exposed to the short axis slices immediately for 18 h and thereafter imaged using a digital autoradiographic system (Typhoon FLA 7000).” left out

[7] = target: T2, NET; assay: Cardiac PET imaging in healthy rats with and without NET blockade; assay type: in vivo
Description: Rats were maintained anaesthetized during the whole experiment by 2% isoflurane. All scans were obtained using a dedicated small-animal PET system (microPET FOCUS 120, SIEMENS, Germany). The PET imaging protocol was designed to assess the systemic and myocardial tracer distribution of ^18F-AF78. Shortly before the injection of 10-20 MBq of ^18F-AF78 via the tail vein, a dynamic PET scan was initiated. In order to evaluate the cardiac uptake mechanism of the tracer, rats were pretreated with phenoxybenzamine (50 mg/kg intravenously, Sigma-Aldrich, Tokyo, Japan). Ten minutes after the pretreatment, 10-20 MBq of ^18F-AF78 was administered via the tail vein. A 10 min dynamic PET session was started shortly before the tracer injection. PET image was acquired in list-mode format. The data were sorted into 3-dimensional sonograms, which were then rebind with a Fourier algorithm to reconstruct dynamic images using a 2-dimensional ordered-subset expectation maximization (OSEM) algorithm. All images were corrected for ^18F decay, random, and dead time; correction for attenuation was not performed (Higuchi JNM 2013). The obtained PET images were analyzed with the public domain tool AMIDE imaging software (A Medical Imaging Data Examiner, version 1.01). […]

[8] = tested on: NET; assay: Dynamic PET time-activity curves in Cynomolgus monkey with and without DMI pretreatment; assay type: in vivo
Procedure: For control, Cynomolgus monkey (male, 5.3 kg) was maintained anaesthetized during the imaging study using 3.3% seboflurane. Shortly before receiving an intravenous injection of the tracer (44 MBq), a 120 min dynamic PET session was started. In addition, to investigate the inhibition of cardiac neuronal uptake-1, DMI (1 mg/kg, iv.) was injected to Cynomolgus monkey (female, 5.6 kg) 10 min before the tracer (18.2 MBq) injection and PET assessment started. PET was conducted using a PCA-2000A positron scanner (Toshiba Medical Systems Corporation, Otawara, Japan). Sinograms were collected with the following pattern: 10 sec×12, 30 sec×6, 300 sec×23. The tissue uptake was determined as arbitrary unit (A.U.), from which a time-activity curves of different organs were generated.
A tissue bio-distribution consistent with that observed in rat could be observed with clear long term and stable cardiac uptake during the total 120 min scan whereas uptake in adjacent liver and lungs was low. Representative time activity curves derived from ^18F-AF78 dynamic images in control and sympathetic nerve blocked monkey were generated from the scanning data. […] In the control, activity in the liver reached a peak a little while after the tracer injection, then decreased slowly to blood level after 60 min.

[9] = Biodistribution study (SUV) in monkey; assay type: in vivo
Procedure: A further biodistribution study with ^18F-AF78 in monkey has been conducted. […] The liver uptake is decreasing and is lower than cardiac uptake 35 min after tracer administration.

[10] = tested on: NET; assay: Kinetic study in monkeys' hearts (DMI blocking, DMI chase, tyramine chase); assay type: in vivo, monkey
Description: A kinetic study has been performed with ^18F-AF78 in monkeys' hearts. The results confirmed the specific uptake of ^18F-AF78 via NET and stable vesicular storage mechanism in the sympathetic nerve terminals. […] Furthermore, a continuous tyramine (TYR) chase was applied after tracer administration. Tyramine is known as agent causing a catecholamine release thus enhancing tracer washout. […] Decrease was statistically significant (p<0.005) compared to control group (FIG. 18, lower panel).

[11] = Static PET images of cardiac uptake in several species; assay type: in vivo; conditions: healthy rats, rabbits, pigs and monkeys
[12] = 10 min post injection, control, mean of 2 rats
[13] = PhB 50 mg/kg 10 min before tracer, 10 min post injection

Molecule: N=C(N)NCCc1ccc(OCCCF)c(F)c1 [AF78]
IC50 [1]: 2.57 ± 1.37 µM
IC50 [2]: 2.68 ± 0.83 µM

Molecule: N=C(N)NCCc1ccc(O)c([18F])c1 [PHPG, ^18F-3-fluoro-4-hydroxyphenethylguanidine]
H/B tissue concentration ratio [3]: 5.4
H/L tissue concentration ratio [3]: 1.1

Molecule: NC(N)=NCCc1ccc(OCCC[18F])c(F)c1 [^18F-AF78]
Tracer uptake inhibited by the addition of DMI [4]: 94%
Heart-to-Blood (H/B) ratio [5, 12]: 12.54
Heart-to-Liver (H/L) ratio [5, 12]: 6.14
Decline in the H/B ratio by PhB ([5]; PhB 50 mg/kg): approximately 6 fold
Decline in the H/L ratio by PhB ([5]; PhB 50 mg/kg): ~5 fold
Heart-to-Blood (H/B) ratio after NET blockade [5, 13]: 2.41
Heart-to-Liver (H/L) ratio after NET blockade [5, 13]: 1.30
Tracer distribution in myocardium (autoradiography) ([6]; rat LVSA slices, control): homogeneous tracer uptake throughout the left ventricular walls
Tracer distribution after PhB pretreatment (autoradiography) ([6]; rat, PhB 50 mg/kg i.v. 10 min before tracer): could be inhibited by a pretreatment with phenoxybenzamine
Myocardial tracer uptake after NET blockade, static PET images ([7]; PhB 50 mg/kg iv 10 min before tracer): significantly decreased the myocardial tracer uptake
Myocardial tracer uptake, static PET images ([7]; no pretreatment): homogeneous and clear tracer uptake throughout the left ventricular wall
Time after which liver activity decreased to blood level ([8]; control monkey): 60 min
Cardiac uptake over scan time ([8]; control monkey, 120 min dynamic PET): maintained activity throughout the entire 120 min scan time
Liver uptake after DMI pretreatment ([8]; monkey, DMI 1 mg/kg iv): not affected by pretreatment with DMI
Heart uptake after DMI pretreatment ([8]; monkey, DMI 1 mg/kg iv 10 min before tracer): markedly reduced the heart uptake level
Biodistribution (SUV) result [9]: stable cardiac uptake along with fast blood pool washout and relative fast liver uptake washout
Time after tracer administration at which liver uptake is lower than cardiac uptake [9]: 35 min
Cardiac tracer uptake with DMI chase vs control ([10]; DMI injected 10 min after tracer): no difference can be seen compared to control group
Cardiac tracer uptake with DMI blocking vs control ([10]; DMI injected 10 min before tracer): specifically blocked the tracer uptake with significant difference
Cardiac tracer uptake with tyramine chase vs control ([10]; continuous tyramine chase after tracer): decreased considerable
Cardiac uptake in static PET images across species [11]: works in all of these species

Molecule: N=C(N)NCc1cccc([131I])c1 [^131I-MIBG, ^123/131I-meta-iodobenzylguanidine, reference compound]
Tracer uptake inhibited by the addition of DMI [4]: 87%

inhibition at 100 µM ([1]; at 100 μM (highest concentration tested)): 40%
Molecule: N=C(N)NCCc1ccc(F)c(OCCCF)c1 [cold reference 1]

Molecule: ^18F-4-fluoro-3-hydroxyphenethylguanidine [MHPG]
IC50 [1]: 6.8 ± 0.73 µM
IC50 [2]: 0.85 ± 0.63 µM
H/B tissue concentration ratio [3]: 3.6
H/L tissue concentration ratio [3]: 2.3
